From paper PMC9144902, “Metal(II) Complexes of the Fluoroquinolone Fleroxacin: Synthesis, Characterization and Biological Profile” (Pharmaceutics, 2022)

How the values were obtained:
CT DNA = assay: Study of the DNA-interaction by cyclic voltammetry; format: binding, calf; details: for Epa(f), anodic potential / Epc(f), cathodic potential / Epa(b), anodic potential / Epc(b), cathodic potential: M(II)/M(I), 1:2 DMSO/buffer; for Epa(f), anodic potential / Epc(f), cathodic potential: absence of CT DNA; for Epa(b), anodic potential / Epc(b), cathodic potential: presence of CT DNA; for Kr/Kox, ratio of equilibrium DNA-binding constants (reduced/oxidized form): eq. S6
Procedure: Cyclic voltammetry was used to study the interaction of the complexes with CT DNA. An intercalative interaction will induce a positive shift for the electrochemical potential(s) of metal oxidation/reduction, whereas, in the case of electrostatic interaction, a negative shift in the potential(s) may occur. The cyclic voltammograms of the complexes in a 1:2 DMSO:buffer solution (0.33 mM) were recorded in the absence and presence of the CT DNA solution (Figure S13). The predominant electrochemical feature for all complexes is a positive shift in the potential in the presence of CT DNA (ΔEpc/a = (–30)–(+127) mV). Consequently, the intercalative nature of the interaction of the complexes with DNA can be inferred from the presented data.
In order to evaluate further the redox behavior of the complexes, the corresponding equilibrium constants were calculated by determining the ratio Kr/Kox in accordance to Equation (S6), where Kox and Kr are the DNA-binding constants for the oxidized and reduced form, respectively, of the metal ions. For all complexes, the Kr/Kox ratio is close to or above 1 (Table 7), showing the selective binding of DNA to the […] form of the complexes. […]
S3.3 Study of the DNA –interaction by cyclic vol ta mmetry
Cyclic voltammetr y can be also used in order to calculate the corresponding equilibrium constant for the redox process. The ratio of the DNA–binding constants for the reduced (K r) and oxidized forms (Kox) of t he complex es (Kr/Kox) w as calculat ed according t o eq. S6:
Δ = = 0.059 × lo gEE E K oxoo o (eq. S6) […]
where Eo and Eo are the formal potentials of M(II)/M(I) redox couple in the fully bound and […]
free complexes, respectivel y. Kox and Kr are the binding constants for the binding of the oxidized and reduced species to DNA, respectivel y [S8] . […]

EB–DNA adduct (CT DNA) = assay: Competitive study with EB (EB–DNA fluorescence quenching); format: binding, calf; details: for Ksv, Stern–Volmer constant: EB–DNA adduct; for ΔI/Io, percentage of EB–DNA fluorescence quenching: [EB] = 20 μM, [DNA] = 26 μM, λexc 540 nm, λem 592 nm; for EB–DNA relative fluorescence emission intensity, % of the initial (I/Io): λemission = 592 nm, final value (up to), Figure S14; for kq, EB–DNA quenching constant: τo = 23 ns

Question: With `CN1CCN(c2c(F)cc3c(=O)c(C(=O)[O-])cn(CCF)c3c2F)CC1.CN1CCN(c2c(F)cc3c(=O)c(C(=O)[O-])cn(CCF)c3c2F)CC1.[Co+2].c1ccc(-c2ccccn2)nc1` [complex 15, [Co(flrx)2(bipy)]] as the molecule, how does the “Epa(f), anodic potential” value (CT DNA) read?
Answer: −533 mV

Question: And the “Epc(f), cathodic potential” value (CT DNA)?
Answer: −701 mV

Question: And the “Epa(b), anodic potential” value (CT DNA)?
Answer: −541 mV

Question: And the “Epc(b), cathodic potential” value (CT DNA)?
Answer: −695 mV

Question: And the “Kr/Kox, ratio of equilibrium DNA-binding constants (reduced/oxidized form)” value (from here on “Kr/Kox, ratio … (reduced/oxidized form)”) (CT DNA)?
Answer: 0.98

Question: What about the “Ksv, Stern–Volmer constant” value (EB–DNA adduct (CT DNA)) of the same molecule?
Answer: 4.69(±0.09) × 10^5 M^–1

Question: What about the “ΔI/Io, percentage of EB–DNA fluorescence quenching” value (from here on “ΔI/Io, percentage”) (EB–DNA adduct (CT DNA)) of the same molecule?
Answer: 80.4%

Question: And the “EB–DNA relative fluorescence emission intensity, % of the initial (I/Io)” value (EB–DNA adduct (CT DNA))?
Answer: 19.6%

Question: And the “kq, EB–DNA quenching constant” value (EB–DNA adduct (CT DNA))?
Answer: 2.04(±0.04) × 10^13 M^−1s^−1

Question: What does the source list for `CN1CCN(c2c(F)cc3c(=O)c(C(=O)[O-])cn(CCF)c3c2F)CC1.CN1CCN(c2c(F)cc3c(=O)c(C(=O)[O-])cn(CCF)c3c2F)CC1.[Co+2].c1ccc(Nc2ccccn2)nc1` [complex 16, [Co(flrx)2(bipyam)]]?
Answer: Epa(f), anodic potential (CT DNA): −466 mV; Epc(f), cathodic potential (CT DNA): −729 mV; Epa(b), anodic potential (CT DNA): −445 mV; Epc(b), cathodic potential (CT DNA): −741 mV; Kr/Kox, ratio of equilibrium DNA-binding constants (reduced/oxidized form) (CT DNA): 1.08; Ksv, Stern–Volmer constant (EB–DNA adduct (CT DNA)): 3.77(±0.12) × 10^5 M^–1; ΔI/Io, percentage of EB–DNA fluorescence quenching (EB–DNA adduct (CT DNA)): 70.7%; EB–DNA relative fluorescence emission intensity, % of the initial (I/Io) (EB–DNA adduct (CT DNA)): 29.3%; kq, EB–DNA quenching constant (EB–DNA adduct (CT DNA)): 1.64(±0.05) × 10^13 M^−1s^−1

Question: How did the “Epa(f), anodic potential” value (CT DNA) turn out when `CN1CCN(c2c(F)cc3c(=O)c(C(=O)[O-])cn(CCF)c3c2F)CC1.CN1CCN(c2c(F)cc3c(=O)c(C(=O)[O-])cn(CCF)c3c2F)CC1.[Co+2].c1cnc2c(c1)ccc1cccnc12` [complex 17, [Co(flrx)2(phen)]] was run?
Answer: −523 mV

Question: And the “Epc(f), cathodic potential” value (CT DNA)?
Answer: −695 mV

Question: And the “Epa(b), anodic potential” value (CT DNA)?
Answer: −518 mV

Question: What about the “Epc(b), cathodic potential” value (CT DNA) of the same molecule?
Answer: −689 mV

Question: And the “Kr/Kox, ratio … (reduced/oxidized form)” value (CT DNA)?
Answer: 1.10

Question: What about the “Ksv, Stern–Volmer constant” value (EB–DNA adduct (CT DNA)) of the same molecule?
Answer: 3.56(±0.10) × 10^5 M^–1

Question: What about the “ΔI/Io, percentage” value (EB–DNA adduct (CT DNA)) of the same molecule?
Answer: 69.8%

Question: What about the “EB–DNA relative fluorescence emission intensity, % of the initial (I/Io)” value (EB–DNA adduct (CT DNA)) of the same molecule?
Answer: 30.2%

Question: What about the “kq, EB–DNA quenching constant” value (EB–DNA adduct (CT DNA)) of the same molecule?
Answer: 1.55(±0.05) × 10^13 M^−1s^−1

Question: Which “Epa(f), anodic potential” value (CT DNA) does the source give for `CN1CCN(c2c(F)cc3c(=O)c(C(=O)[O-])cn(CCF)c3c2F)CC1.CN1CCN(c2c(F)cc3c(=O)c(C(=O)[O-])cn(CCF)c3c2F)CC1.[Ni+2].c1ccc(Nc2ccccn2)nc1` [complex 18, [Ni(flrx)2(bipyam)]] here?
Answer: −523 mV

Question: What about the “Epc(f), cathodic potential” value (CT DNA) of the same molecule?
Answer: −695 mV

Question: And the “Epa(b), anodic potential” value (CT DNA)?
Answer: −512 mV

Question: What about the “Epc(b), cathodic potential” value (CT DNA) of the same molecule?
Answer: −689 mV

Question: What about the “Kr/Kox, ratio … (reduced/oxidized form)” value (CT DNA) of the same molecule?
Answer: 1.15

Question: And the “Ksv, Stern–Volmer constant” value (EB–DNA adduct (CT DNA))?
Answer: 3.02(±0.13) × 10^5 M^–1

Question: And the “ΔI/Io, percentage” value (EB–DNA adduct (CT DNA))?
Answer: 59.3%

Question: And the “kq, EB–DNA quenching constant” value (EB–DNA adduct (CT DNA))?
Answer: 1.31(±0.05) × 10^13 M^−1s^−1

Question: Which “Epa(f), anodic potential” value (CT DNA) does the source give for `CN1CCN(c2c(F)cc3c(=O)c(C(=O)[O-])cn(CCF)c3c2F)CC1.CN1CCN(c2c(F)cc3c(=O)c(C(=O)[O-])cn(CCF)c3c2F)CC1.[Ni+2].c1cnc2c(c1)ccc1cccnc12` [complex 19, [Ni(flrx)2(phen)]] here?
Answer: −489 mV

Question: And the “Epc(f), cathodic potential” value (CT DNA)?
Answer: −706 mV

Question: What about the “Epa(b), anodic potential” value (CT DNA) of the same molecule?
Answer: −460 mV

Question: And the “Epc(b), cathodic potential” value (CT DNA)?
Answer: −718 mV

Question: And the “Kr/Kox, ratio … (reduced/oxidized form)” value (CT DNA)?
Answer: 1.15

Question: What about the “Ksv, Stern–Volmer constant” value (EB–DNA adduct (CT DNA)) of the same molecule?
Answer: 3.18(±0.14) × 10^5 M^–1

Question: And the “ΔI/Io, percentage” value (EB–DNA adduct (CT DNA))?
Answer: 68.1%

Question: And the “EB–DNA relative fluorescence emission intensity, % of the initial (I/Io)” value (EB–DNA adduct (CT DNA))?
Answer: 31.9%

Question: And the “kq, EB–DNA quenching constant” value (EB–DNA adduct (CT DNA))?
Answer: 1.38(±0.05) × 10^13 M^−1s^−1
